Data as given in article PMC5764323, “The etomidate analog ET-26 HCl retains superior myocardial performance: Comparisons with etomidate in vivo and in vitro” (PLoS ONE, 2018).
pIC50: −log10 of the molar value. Structures can show the parent of a compound that is named as a salt.

Target: T1, human ether-a-go-go-related gene (hERG) channel (Homo sapiens, UniProt Q12809)
T1 construct: gene KCNH2
Assay: whole-cell patch clamp, hERG tail current in HEK-293 cells
Assay type: cell-based
Text: whole-cell patch clamp, hERG tail current in HEK-293 cells on human ether-a-go-go-related gene (hERG) channel | etomidate inhibited the tail current of the hERG in a concentration-dependent manner | The etomidate analogue, ET-26 HCl, inhibited the hERG current in a similar concentration-dependent manner

T1 sequence (Q12809 whole entry): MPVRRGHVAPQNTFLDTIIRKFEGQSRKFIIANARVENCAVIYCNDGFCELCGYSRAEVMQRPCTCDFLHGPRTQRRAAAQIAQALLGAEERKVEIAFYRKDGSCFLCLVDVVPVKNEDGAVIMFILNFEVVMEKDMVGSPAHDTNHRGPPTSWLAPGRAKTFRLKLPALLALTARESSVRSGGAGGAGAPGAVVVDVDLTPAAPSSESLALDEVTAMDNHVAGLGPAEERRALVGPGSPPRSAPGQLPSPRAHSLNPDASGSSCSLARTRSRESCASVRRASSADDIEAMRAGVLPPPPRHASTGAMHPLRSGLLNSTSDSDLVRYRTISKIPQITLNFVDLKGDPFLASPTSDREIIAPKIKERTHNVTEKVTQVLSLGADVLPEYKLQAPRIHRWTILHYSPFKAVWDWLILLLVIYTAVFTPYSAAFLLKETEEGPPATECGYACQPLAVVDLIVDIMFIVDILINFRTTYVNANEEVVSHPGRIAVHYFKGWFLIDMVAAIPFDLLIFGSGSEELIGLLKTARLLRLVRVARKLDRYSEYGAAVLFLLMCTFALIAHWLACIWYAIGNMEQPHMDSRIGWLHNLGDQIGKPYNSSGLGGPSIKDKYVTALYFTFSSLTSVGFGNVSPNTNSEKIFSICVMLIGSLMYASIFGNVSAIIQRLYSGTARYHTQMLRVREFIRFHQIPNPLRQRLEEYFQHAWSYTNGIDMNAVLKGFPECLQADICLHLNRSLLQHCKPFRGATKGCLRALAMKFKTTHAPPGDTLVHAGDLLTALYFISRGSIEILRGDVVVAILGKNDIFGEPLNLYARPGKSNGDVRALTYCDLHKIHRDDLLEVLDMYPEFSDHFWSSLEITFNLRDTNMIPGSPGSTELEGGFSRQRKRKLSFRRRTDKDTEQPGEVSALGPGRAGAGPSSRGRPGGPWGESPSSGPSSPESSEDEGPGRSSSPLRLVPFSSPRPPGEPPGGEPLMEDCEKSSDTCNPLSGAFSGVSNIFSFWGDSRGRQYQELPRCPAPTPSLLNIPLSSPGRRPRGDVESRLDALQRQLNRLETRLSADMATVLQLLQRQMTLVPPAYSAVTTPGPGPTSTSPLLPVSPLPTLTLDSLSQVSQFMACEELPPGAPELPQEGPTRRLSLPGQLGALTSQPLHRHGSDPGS

## COCCOC(=O)c1cncn1[C@H](C)c1ccccc1 [ET-26 HCl, (R)-2-methoxyethyl1-(1-phenylethyl)-1H-imidazole-5-carboxylate hydrochloride]
  pIC50: 3.13

## CCOC(=O)c1cncn1[C@H](C)c1ccccc1 [etomidate]
  pIC50: 3.58
